Results reported in US9452177B2, “Vitamin D compounds and methods for reducing ocular hypertension (OHT)” (Wisconsin Alumni Research Foundation, priority 2008, dated 2016).
“Also recorded” adds a separate entry of the source.

Legend:
[1] = test system: monkey eyes; test: Outflow facility by two-level constant pressure perfusion of the anterior chamber; assay type: in vivo, cynomolgus monkeys; details: for increase in outflow facilities, vitamin D treated eyes: combined n=8
Protocol: (§1) Ocular normotensive adult cynomolgus monkeys, of either sex, weighing 3-7 kg were anesthetized with i.m. ketamine HCl (3-25 mg/kg, supplemented with 1-10 mg/kg) for IOP, topical drop administration and aqueous humor flow measurements. All monkeys were free of any ocular abnormalities according to slit lamp biomicroscopy at the time measurements were taken. For outflow facility measurements, animals were given intravenous sodium pentobarbital (15 mg/kg, supplemented with 5-10 mg/kg) following i.m. ketamine induction.
Outflow facility was determined in pentobarbital-anesthetized monkeys [Gabelt, 2004] by two-level constant pressure perfusion of the anterior chamber with Bárány's perfusand [Bárány, 1964] (n=8). Four monkeys (group A) received the single bolus injection of 1 μl of 1 μg vitamin D 1,25-dihydroxyvitamin D3 (1,25-(OH)2D3) into the anterior chamber of one eye (Treated eye) or 1 μl of propylene glycol into the anterior chamber of fellow eye (Control eye). Four monkeys (group B) were treated topically with 5 μg of vitamin D in 5 μl of propylene glycol or vehicle (5 μl of propylene glycol) twice daily for two days.
Following baseline outflow facility measurements on the third day, the fifth treatment was administered as a single bolus injection of 1 μl of 1 μg vitamin D 1,25-dihydroxyvitamin D3 (1,25-(OH)2D3) into the anterior chamber of one eye (Treated eye) or 1 μl of propylene glycol into the anterior chamber of fellow eye (Control eye). Following injections, the treatment bolus was allowed to wash in for 5 min with flow from the reservoirs. Then the contents of the anterior chamber were mixed by blowing cold air on the cornea to create convection. Reservoirs were closed for 75 minutes, then reopened and outflow facility measured for 60-90 minutes. Data were averaged for the entire 60-90 minute period and for 30-minute intervals and then were compared to baseline and to the vehicle treated eyes. Ratios were compared by the two-tailed paired t-test for ratios different from 1.0.
Baseline outflow facilities were studied in two groups (A and B) of monkeys (Materials and Methods). Group A (n=4) was treated with single bolus intracameral injection of 1 μg vitamin D (1,25-(OH)2D3) in 1 μl propylene glycol in one eye and 1 μl vehicle, propylene glycol in the control eye (Table 2, A). Group B (n=4) was treated topically with 5 μg of vitamin D in 5 μl of propylene glycol or vehicle (5 μl of propylene glycol) twice daily for two days. Then, following baseline outflow facility measurements on the third day, the fifth treatment was administered as a single bolus injection of 1 μl of 1 μg vitamin D 1,25-dihydroxyvitamin D3 (1,25-(OH)2D3) into the anterior chamber of one eye (Treated eye) or 1 μl of propylene glycol into the anterior chamber of fellow eye (Control eye).

[2] = test system: eyes of cynomolgus monkeys; test: Aqueous humor formation rate by ocular scanning fluorophotometry; assay type: in vivo; details: for AHF Rx/Baseline, Vitamin D eye / AHF Rx/Baseline, Vitamin D/Vehicle / AHF ratio Vitamin D/Vehicle after treatment / Aqueous humor formation (AHF), Vitamin D eye after treatment: 5 μg
Protocol: as §1
Aqueous humor formation rate was determined by ocular scanning fluorophotometry (Fluorotron Master, OcuMetrics Inc, Mountain View, Calif.) as previously described [Rasmussen, 2007]. Fluorescein drops were administered at least 30 minutes after the fourth treatment (see above) with vitamin D or vehicle. On day 3, prior to the fifth treatment, IOP and biomicroscopy were done. Following the fifth treatment scans were taken hourly, beginning 1 hour after treatment, until 6 duplicates scans were collected. Baseline scans were collected for 6 hours within 2 weeks before and at least 2 weeks after the treatment study. Post treatment aqueous humor formation rates were compared to the average of the pre and post baseline scans and to the vehicle treated eyes by the paired t-test for ratios different from 1.0. There were 8 monkeys for each treatment group.
Aqueous humor formation was measured by fluorophotometry during the interval 1-6 hr after the 5th topical bid treatment with vitamin D or vehicle to opposite eyes (see Materials and Methods). Units for aqueous humor formation are μl/min. Data are Mean±Sem. Rx, treatment (Vitamin D or vehicle) n=6.

[3] = Serum Ca2+ level after ocular topical applications; assay type: in vivo, cynomolgus monkeys (Macaca fascicularis); details: 5 μg, 3 days, total 5 unilateral topical applications
Protocol: Under ketamine anesthesia (KETAJECT™, Phoenix Pharmaceutical, St Joseph, Mo. (3-25 mg/kg i.m., supplemented with 1-10 mg/kg i.m. as needed) baseline IOP was determined, usually between 7:30 and 9 am (2 readings, 5 minutes apart; if IOP baseline measurements were not within 2-3 mm Hg of each other, a 3rd reading was taken 5 min later). Baseline IOP was at least 15 mmHg if possible. A baseline blood sample was taken from the femoral artery or vein, or sometimes the brachial vein (1-2 ml). This was allowed to clot and then spun down (3000 rpm for 10 min, Damon/IEC NH-SII centrifuge) and the serum removed and frozen at −20 C for no more than 1 week. Baseline systolic, diastolic and mean arterial pressure as well as heart rate were recorded with the Dinamap monitor from a cuff placed around the arm or the leg.
On the 3th day, prior to the 5th treatment, baseline IOP, biomicroscopy and MAP were determined. […] Following the 5th dose, IOP was measured at 1, 2, 3, 4, 5, 6, 7, 8, 12 (if possible), 24, and sometimes 48 hr. […] MAP on day 3 (some protocols) was determined at 1, 2, 3, 4, 5, 6, 7, 8, 24 and sometimes 48 hr if possible. […] For some protocols, IOP was also measured prior to each treatment; MAP was measured prior to the morning treatment; blood was collected prior to the afternoon treatment. […]

[4] = Combined data for Groups A and B, n=8
[5] = Group A, 1 μg intracameral, n=4
[6] = Group B, 5 μg topical (4 treatments) then 1 μg intracameral, n=4
[7] = Hours 1-3 after 5th topical bid treatment
[8] = Hours 1-6 after 5th topical bid treatment
[9] = Hours 4-6 after 5th topical bid treatment

C=C1/C(=C\C=C2/CCC[C@]3(C)[C@@H]([C@H](C)CCCC(C)(C)O)CC[C@@H]23)C[C@@H](O)C[C@@H]1O [1,25-(OH)2D3, 1α,25-dihydroxyvitamin D3]
Cumulative 90 min outflow facility, Treated eye after Vitamin D [1, 4]: 0.44 ± 0.13 μl/min/mmHg
Outflow facility Vitamin D/Baseline, Treated/Control [1, 4]: 0.94 ± 0.11
Outflow facility ratio Treated/Control after Vitamin D [1, 4]: 0.87 ± 0.16
Outflow facility Vitamin D/Baseline, Treated eye ([1]; Combined data for Groups A and B, n=8, *p<0.05 vs 1.0): 1.59 ± 0.19*
Cumulative 90 min outflow facility, Treated eye after Vitamin D [1, 5]: 0.37 ± 0.07 μl/min/mmHg
Outflow facility Vitamin D/Baseline, Treated eye [1, 5]: 1.80 ± 0.30
Outflow facility Vitamin D/Baseline, Treated/Control [1, 5]: 1.04 ± 0.13
Outflow facility ratio Treated/Control after Vitamin D [1, 5]: 0.82 ± 0.20
Cumulative 90 min outflow facility, Treated eye after Vitamin D [1, 6]: 0.51 ± 0.26 μl/min/mmHg
Outflow facility Vitamin D/Baseline, Treated eye [1, 6]: 1.39 ± 0.45
Outflow facility Vitamin D/Baseline, Treated/Control [1, 6]: 0.84 ± 0.18
Outflow facility ratio Treated/Control after Vitamin D [1, 6]: 0.91 ± 0.27
increase in outflow facilities, vitamin D treated eyes ([1]; at 60 min, significant): 60%
increase in outflow facilities, vitamin D treated eyes ([1]; at 90 min, significant): 115%
increase in outflow facilities over baseline, both eyes ([1]; at 90 min after the intracameral injections): about 100%
outflow facility, vitamin D versus vehicle treated eyes ([1]; cumulative 90 min, groups A and B and combined): no significant differences were found neither between the vitamin D or vehicle treated eyes; also recorded: did not change either the aqueous humor flow or the outflow facilities
increase in outflow facilities, vitamin D treated eyes ([1]; first 30 min after the bolus injection, non-significant): 10%
change in aqueous humor formation rate ([2]; 5 μg topical, compared to baseline or vehicle eye): no changes in the aqueous humor formation rates; also recorded: does not change the aqueous humor formation
AHF Rx/Baseline, Vitamin D eye [2, 7]: 1.06 ± 0.10
AHF Rx/Baseline, Vitamin D/Vehicle [2, 7]: 1.07 ± 0.06
AHF ratio Vitamin D/Vehicle after treatment [2, 7]: 0.94 ± 0.05
Aqueous humor formation (AHF), Vitamin D eye after treatment [2, 7]: 1.27 ± 0.08 µL/min
AHF Rx/Baseline, Vitamin D eye [2, 8]: 1.14 ± 0.06
AHF Rx/Baseline, Vitamin D/Vehicle [2, 8]: 1.10 ± 0.07
AHF ratio Vitamin D/Vehicle after treatment [2, 8]: 1.01 ± 0.07
Aqueous humor formation (AHF), Vitamin D eye after treatment [2, 8]: 1.53 ± 0.10 µL/min
AHF Rx/Baseline, Vitamin D eye [2, 9]: 1.25 ± 0.09
AHF Rx/Baseline, Vitamin D/Vehicle [2, 9]: 1.22 ± 0.16
AHF ratio Vitamin D/Vehicle after treatment [2, 9]: 0.98 ± 0.10
Aqueous humor formation (AHF), Vitamin D eye after treatment [2, 9]: 1.54 ± 0.14 µL/min
blood serum calcium levels [3]: did not change
